Laboratory results from paper PMC6251858 (Acta Pharmaceutica Sinica. B, 2018).

Legend:
Assay type in all cases: cell-based
[1] = system: herpes simplex virus 1 (HSV-1); assay: in vitro antiviral assay against herpes simplex virus 1
Coxsackie virus B3 = assay: in vitro inhibition of Coxsackie virus B3 replication; details: for SI against Coxsackie virus B3 replication: selectivity index, preliminary in vitro assay
[2] = system: influenza virus A/Hanfang/359/95 (H3N2); assay: in vitro antiviral assay against influenza virus A/Hanfang/359/95; details: selectivity index, preliminary in vitro assay

SMILES	IC50 ([1]; Human alphaherpesvirus 1, read-out: IC50 against herpes simplex virus 1 (HSV-1)) [nM]	SI against herpes simplex virus 1 (HSV-1) ([1]; selectivity index, preliminary in vitro assay)	IC50 (Coxsackie virus B3; Enterovirus B, B3, read-out: IC50 against Coxsackie virus B3 replication) [nM]	SI against Coxsackie virus B3 replication (Coxsackie virus B3)	SI against influenza virus A/Hanfang/359/95 (H3N2) [2]
Nc1nc2c(ncn2COCCO)c(=O)[nH]1 [acyclovir]	710	140.9	–	–	–
Cc1cc(CCCOc2c(C)cc(-c3noc(C(F)(F)F)n3)cc2C)on1 [Pleconaril]	–	–	410	243.9	–
NC(=O)c1ncn([C@@H]2O[C@H](CO)[C@@H](O)[C@H]2O)n1 [RBV]	–	–	–	9.0	1200
